According to patent US20150133456A1, “FLUOROERGOLINE DERIVATIVES AND USES THEREOF” (MAP PHARMACEUTICALS, INC., priority 2012, published 2015):
pEC50, pIC50: −log10 of the molar value.

Tests used:
[1] = test system: NMDA (NR1/NR2A/NR2B/NR2C/NR2D); assay: NMDA receptor Fluo-8 calcium FLIPR assay, agonist and antagonist; type: cell-based, human; conditions: NMDA channels in HEK293
Procedure: The following channels were evaluated: Cloned NMDA receptor (NR1/NR2A) channel (encoded by the GRIN1 and GRIN2A genes, coexpressed in HEK293 cells; Cloned NMDA receptor (NR1/NR2B) channel (encoded by the GRIN1 and GRIN2B genes, coexpressed in HEK293 cells; Cloned NMDA receptor (NR1/NR2C) channel (encoded by the GRIN1 and GRIN2C genes, coexpressed in HEK293 cells; and Cloned NMDA receptor (NR1/NR2D) channel (encoded by the GRIN1 and GRIN2D genes, transiently coexpressed in HEK293 cells.
For the agonist assessment, the effect of 2-CF3-DHE was evaluated in the absence of the positive control agonist. The signal, elicited in the presence of the agonist (100 μM Glutamic acid+20 μM Glycine), was set to 100% activation and the signal in the presence of the vehicle control (Mg^2+-free HB-PS) was set to 0% activation.
For the antagonist assessment, NR1/NR2A and NR1/NR2B was activated with the positive control agonist (100 μM Glutamic acid+20 μM Glycine). The ability of 2-CF3-DHE to inhibit the signal was examined after agonist stimulation and compared to the positive control antagonist (MK-801).

α1D receptor = molecular target: T1, α1D receptor (Homo sapiens, UniProt P25100); assay: Competitive antagonist activity, adrenergic α1D; type: cell-based; conditions: read-out: IC50, α1D antagonism
T1 construct: expressed in transfected cells
T1 sequence (P25100 whole entry): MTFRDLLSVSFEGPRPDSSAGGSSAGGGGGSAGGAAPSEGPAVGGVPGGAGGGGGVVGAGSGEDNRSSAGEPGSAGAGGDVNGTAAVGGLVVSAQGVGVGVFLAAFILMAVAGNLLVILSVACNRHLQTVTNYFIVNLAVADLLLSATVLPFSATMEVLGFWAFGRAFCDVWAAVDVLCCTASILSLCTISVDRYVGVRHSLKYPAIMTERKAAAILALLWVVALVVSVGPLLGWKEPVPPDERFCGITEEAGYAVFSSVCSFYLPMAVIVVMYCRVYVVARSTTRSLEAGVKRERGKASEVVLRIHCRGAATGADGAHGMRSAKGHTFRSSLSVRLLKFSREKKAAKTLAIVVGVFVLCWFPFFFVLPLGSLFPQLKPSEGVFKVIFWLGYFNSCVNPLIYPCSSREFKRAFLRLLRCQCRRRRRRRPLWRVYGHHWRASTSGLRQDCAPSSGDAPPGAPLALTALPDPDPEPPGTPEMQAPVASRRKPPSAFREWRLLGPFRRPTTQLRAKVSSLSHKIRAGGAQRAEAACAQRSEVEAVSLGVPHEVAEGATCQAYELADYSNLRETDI

CCK2 = molecular target: T2, CCK2 (Homo sapiens, UniProt P32239); assay: Cholecystokinin receptor Aequorin assay; type: cell-based; conditions: antagonism
T2 construct: expressed in transfected cells; host or cells: CHO-AEQ (CHO-K1 with mitochondrial apoaequorin)
T2 sequence (P32239 whole entry): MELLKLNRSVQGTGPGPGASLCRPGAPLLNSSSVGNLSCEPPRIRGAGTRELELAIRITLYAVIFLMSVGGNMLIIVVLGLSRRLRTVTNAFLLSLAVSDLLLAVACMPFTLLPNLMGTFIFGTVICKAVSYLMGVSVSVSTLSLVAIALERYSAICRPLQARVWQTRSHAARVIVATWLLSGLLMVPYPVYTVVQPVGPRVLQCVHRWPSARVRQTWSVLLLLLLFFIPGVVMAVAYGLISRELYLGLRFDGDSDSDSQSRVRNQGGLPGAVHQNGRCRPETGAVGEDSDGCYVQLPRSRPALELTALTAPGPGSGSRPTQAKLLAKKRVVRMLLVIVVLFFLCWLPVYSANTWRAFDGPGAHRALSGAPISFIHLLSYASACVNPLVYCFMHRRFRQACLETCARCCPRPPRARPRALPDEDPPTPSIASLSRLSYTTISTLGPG
Procedure: (§1) CHO-K1 cells coexpressing mitochondrial apoaequorin and the recombinant human receptor of interest were grown to mid-log phase in culture media without antibiotics and then detached with PBS-EDTA, centrifuged and resuspended in assay buffer (DMEM/HAM's F12 with HEPES, without phenol red+0.1% BSA, protease free) at a concentration of 1×10^6 cell/mL. Cells were incubated at room temperature for at least 4 hours with coelenterazine h. Reference agonist/antagonist was tested to evaluate the performance of the assay and to determine EC50/IC50.
(§2) 50 μL of the cell suspension was mixed with 50 μL of test or reference agonist in a 96-well plate. […] For antagonist testing, 100 μL of the reference agonist at its EC80 was injected on the mix of cells and test compound, following an incubation of 15 minutes after the first injection. The resulting emission of light was r recorded using Hamamatsu Functional Drug Screening System 6000 (FDSS 6000) luminometer. To standardize the emission of recorded light (and determine of the “100% signal”) across plates and across different experiments, some wells contained 100 μM digitonin or a saturating concentration of ATP (20 μM).

human 5-HT1B receptor = human 5-HT1B receptor (Homo sapiens, UniProt P28222); assay: GTPγS agonist assay, 5-HT1B
Sequence of human 5-HT1B receptor (P28222 whole entry): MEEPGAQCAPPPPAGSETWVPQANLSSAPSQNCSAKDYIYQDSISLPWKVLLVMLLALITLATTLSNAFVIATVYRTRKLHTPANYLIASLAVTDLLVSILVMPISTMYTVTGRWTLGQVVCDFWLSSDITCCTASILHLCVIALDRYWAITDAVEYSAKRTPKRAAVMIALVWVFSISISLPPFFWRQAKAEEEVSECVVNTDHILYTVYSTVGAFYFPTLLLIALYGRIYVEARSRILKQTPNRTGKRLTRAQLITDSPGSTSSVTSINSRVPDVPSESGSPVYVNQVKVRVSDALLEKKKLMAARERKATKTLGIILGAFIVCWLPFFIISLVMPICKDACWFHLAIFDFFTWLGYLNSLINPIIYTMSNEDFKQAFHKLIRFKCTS
Procedure: The mixture was shaken for 2 minutes prior to a 60 min incubation. It was then centrifuged for 10 minutes and counted for 1 minute with a Perkin Elmer TopCount reader. The resulting emission of light was recorded using a luminometer. Agonist percentage activation determinations were obtained by comparing with the Emax of the reference agonist α-methyl-5-HT.

[2] = test system: Glutamate (mGlu3/mGlu5/mGlu7); assay: Glutamate receptor screen (Aequorin mGlu3/mGlu5, cAMP mGlu7); type: cell-based, human
Procedure: For mGlu3 and mGlu5, CHO-K1 cells coexpressing mitochondrial apoaequorin and recombinant human receptor grown to mid-log phase in culture media without antibiotics and supplemented with doxycycline, (final concentration of 600 ng doxycycline/mL), was detached with PBS-EDTA, centrifuged and resuspended in assay buffer (HBSS, 2.1 mM CaCl2, 3 μg/mL GPT (Glutamate-Pyruvate transaminase), 4 mM MEM Sodium Pyruvate, 0.1% BSA protease free) at a concentration of 1×10^6 cells/mL. Cells were incubated at room temperature for at least 4 hours with coelenterazine h. Reference agonist/antagonist was tested to evaluate the performance of the assay and to determine EC50/IC50. […]
Cells expressing the human recombinant receptor of interest were grown in media without antibiotic and detached by gentle flushing with PBS-EDTA (5 mM EDTA), recovered by centrifugation and resuspended in assay buffer (KRH: 5 mM KCl, 1.25 mM MgSO4, 124 mM NaCl, 25 mM HEPES, 13.3 mM glucose, 1.25 mM KH2PO4, 1.45 mM CaCl2, 0.5 g/L BSA). […] Lysis buffer was added and after a 1 hour incubation, cAMP concentrations was determined according to the manufacturer specification with the HTRF kit. […] Lysis buffer was added and after a 1 hour incubation, cAMP concentrations were determined according to the manufacturer specification, with the HTRF kit.

Calcitonin (AM1/AM2) = Calcitonin (AM1/AM2) cAMP HTRF assays; type: cell-based, human
Procedure: Cells expressing the human recombinant receptor of interest were grown in media without antibiotic and detached by gentle flushing with PBS-EDTA (5 mM EDTA), recovered by centrifugation and resuspended in assay buffer (KRH: 5 mM KCl, 1.25 mM MgSO4, 124 mM NaCl, 25 mM HEPES, 13.3 mM glucose, 1.25 mM KH2PO4, 1.45 mM CaCl2, 0.5 g/L BSA). Dose response curves were performed in parallel with the reference compounds. For agonist tests (96-well plates), 12 μL of cells was mixed with 12 μL of the test compound at increasing concentrations and then incubated for 30 minutes at room temperature. Lysis buffer was added and after a 1 hour incubation, cAMP concentrations was determined according to the manufacturer specification with the HTRF kit. […] Lysis buffer was added and after a 1 hour incubation, cAMP concentrations were determined according to the manufacturer specification, with the HTRF kit.
Cells expressing the human recombinant receptor of interest were grown in media without antibiotic and detached by gentle flushing with PBS-EDTA (5 mM EDTA), recovered by centrifugation and resuspended in assay buffer (KRH: 5 mM KCl, 1.25 mM MgSO4, 124 mM NaCl, 25 mM HEPES, 13.3 mM glucose, 1.25 mM KH2PO4, 1.45 mM CaCl2, 0.5 g/L BSA). […] Lysis buffer was added and after a 1 hour incubation, cAMP concentrations was determined according to the manufacturer specification with the HTRF kit. […]

Adenosine A2a = molecular target: T3, Adenosine A2a (Homo sapiens, UniProt P29274); assay: Adenosine A2a cAMP HTRF assay; type: cell-based; conditions: HEK293, cAMP
T3 construct: expressed in transfected cells; host or cells: HEK293
T3 sequence (P29274 whole entry): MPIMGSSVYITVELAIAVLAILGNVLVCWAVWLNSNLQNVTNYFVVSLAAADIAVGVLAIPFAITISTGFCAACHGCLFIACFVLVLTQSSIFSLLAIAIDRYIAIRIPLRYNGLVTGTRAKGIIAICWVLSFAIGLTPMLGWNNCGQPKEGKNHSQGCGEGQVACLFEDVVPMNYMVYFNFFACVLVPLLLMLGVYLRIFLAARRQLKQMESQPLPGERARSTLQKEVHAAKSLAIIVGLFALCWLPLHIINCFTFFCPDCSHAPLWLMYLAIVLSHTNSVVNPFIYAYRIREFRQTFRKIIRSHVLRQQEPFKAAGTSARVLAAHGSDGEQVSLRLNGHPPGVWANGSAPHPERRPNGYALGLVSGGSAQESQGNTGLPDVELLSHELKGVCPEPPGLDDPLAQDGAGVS
Procedure: Cells expressing the human recombinant receptor of interest were grown in media without antibiotic and detached by gentle flushing with PBS-EDTA (5 mM EDTA), recovered by centrifugation and resuspended in assay buffer (KRH: 5 mM KCl, 1.25 mM MgSO4, 124 mM NaCl, 25 mM HEPES, 13.3 mM glucose, 1.25 mM KH2PO4, 1.45 mM CaCl2, 0.5 g/L BSA). Dose response curves were performed in parallel with the reference compounds. For agonist tests (96-well plates), 12 μL of cells was mixed with 12 μL of the test compound at increasing concentrations and then incubated for 30 minutes at room temperature. Lysis buffer was added and after a 1 hour incubation, cAMP concentrations was determined according to the manufacturer specification with the HTRF kit. For antagonist tests (96-well plates), 12 μL of cells was mixed with 6 μL of the test compound at increasing concentrations and then incubated for 10 minutes. 6 μL of the reference agonist was added at a final concentration corresponding to the historical EC80. The plates were then incubated for 30 minutes at room temperature. Lysis buffer was added and after a 1 hour incubation, cAMP concentrations were determined according to the manufacturer specification, with the HTRF kit.

[3] = test system: VIP/PACAP (PAC1/VPAC1/VPAC2); assay: VIP/PACAP receptor Aequorin assays; type: cell-based, human
Procedure: as §1, §2

Structure (SMILES): CN1C[C@H](C(=O)N[C@]2(C)O[C@@]3(O)[C@@H]4CCCN4C(=O)[C@H](Cc4ccccc4)N3C2=O)CC2c3cccc4[nH]c(C(F)(F)F)c(c34)CC21 (stereo partly drawn) [2-CF3-dihydroergotamine]
- Activity (Agonism: EC50; Antagonism: IC50) [1]: Inactive
- pIC50 (α1D receptor): 7.40
- pIC50 (CCK2): < 5.00
- pEC50 (human 5-HT1B receptor): 6.39
- Activity (Agonism: EC50; Antagonism: IC50) [2]: Inactive
- Activity (Agonism: EC50; Antagonism: IC50) (Calcitonin (AM1/AM2)): Inactive
- Emax (Adenosine A2a): 25%
- pEC50 (Adenosine A2a; read-out: EC50, Adenosine A2a agonism): 8.28
- Activity (Agonism: EC50; Antagonism: IC50) [3]: Inactive
